Assay results from DBAASP.
Values after ≈ are worked out from the molar mass of the structure shown.

Columns and labels:
Experiment in all cases: ≥ marks a high value that may be exact or a test limit, other limits are often not marked, values filed in µg/mL are converted to µM
[1] = system: Proteus vulgaris KCTC 2433
[2] = system: Candida albicans TIMM 1768
[3] = system: Salmonella typhimurium KCTC 1926
[4] = system: Acinetobacter baumannii KCTC 2508
[5] = system: Staphylococcus aureus KCTC 1621
[6] = system: Bacillus subtilis KCTC 1918
[7] = system: Trichosporon beigelii KCTC 7707
[8] = system: Saccharomyces cerevisiae KCTC 7296
Acinetobacter baumannii = system: Acinetobacter baumannii
Escherichia coli UB1005 = system: Escherichia coli UB1005
[9] = system: Pseudomonas aeruginosa H103
[10] = system: Salmonella enterica serovar Typhimurium
Candida albicans = system: Candida albicans
[11] = system: Staphylococcus epidermidis
[12] = system: Enterococcus faecalis ATCC 29212
[13] = system: Staphylococcus aureus ATCC 25923
[14] = system: Staphylococcus aureus ATCC 6538
[15] = system: Pseudomonas aeruginosa ATCC 13388
[16] = system: Salmonella enterica subsp. enterica serovar Typhimurium ATCC 14028
[17] = system: Klebsiella pneumoniae ATCC 10031
[18] = system: Escherichia coli ATCC 11219
[19] = system: Salmonella enterica subsp. enterica serovar Typhimurium LT2
[20] = system: Escherichia coli NCIMB 11843
[21] = system: Pseudomonas fluorescens NCIMB 9046
[22] = system: Cronobacter sakazakii ATCC BAA-894
[23] = system: Staphylococcus aureus RF122
[24] = system: Cronobacter muytjensii ATCC 51329
[25] = system: Cronobacter sakazakii DPC 6440
[26] = system: Cronobacter sakazakii DSM 4485
[27] = system: Staphylococcus aureus SA113
[28] = system: Klebsiella pneumoniae NCIMB 13218
[29] = system: Staphylococcus aureus NCTC 8325-4
[30] = system: Staphylococcus aureus Newman
[31] = system: Staphylococcus aureus RN4220

Which results are given for CC[C@H](C)[C@H](NC(=O)CNC(=O)[C@H](CC(C)C)NC(=O)[C@H](CCCN=C(N)N)NC(=O)[C@H](CCCCN)NC(=O)[C@H](Cc1ccccc1)NC(=O)[C@@H](NC(=O)[C@H](CCCCN)NC(=O)[C@H](CCCCN)NC(=O)[C@H](C)N)C(C)C)C(=O)NCC(=O)N[C@@H](C)C(=O)N[C@H](C(=O)N[C@@H](CC(C)C)C(=O)N[C@@H](CCCCN)C(=O)N[C@H](C(=O)N[C@@H](CC(C)C)C(=O)N[C@H](C(=O)N[C@H](C(=O)NCC(=O)O)[C@@H](C)O)[C@@H](C)O)C(C)C)C(C)C [AKKVFKRLGIGAVLKVLTTG]?
MIC [1]: 6.25 µM (≈ 13.1 µg/mL); MIC [2]: 12.5 µM (≈ 26.2 µg/mL); MIC [3]: 0.39 µM (≈ 0.819 µg/mL); MIC [4]: 6.25 µM (≈ 13.1 µg/mL); MIC [5]: 1.56 µM (≈ 3.28 µg/mL); MIC [6]: 0.78 µM (≈ 1.64 µg/mL); MIC [7]: 17.7 µM (≈ 37.1 µg/mL); MIC [8]: 12.5 µM (≈ 26.2 µg/mL); MIC (Acinetobacter baumannii): 6.25 µM (≈ 13.1 µg/mL)

Which results are given for CC[C@H](C)[C@H](N)C(=O)N[C@@H](CC(C)C)C(=O)N1CCC[C@H]1C(=O)N[C@@H](Cc1c[nH]c2ccccc12)C(=O)N[C@@H](CCCCN)C(=O)N[C@@H](Cc1c[nH]c2ccccc12)C(=O)N[C@@H](CCCN=C(N)N)C(=O)N[C@@H](Cc1c[nH]c2ccccc12)C(=O)N[C@@H](Cc1c[nH]c2ccccc12)C(=O)N[C@@H](CCCCN)C(=O)N[C@@H](Cc1c[nH]c2ccccc12)C(=O)N[C@@H](CCCN=C(N)N)C(=O)N[C@@H](CCCN=C(N)N)C(=O)O [ILPWKWRWWKWRR]?
MIC (Escherichia coli UB1005): 1.4 µM (≈ 2.8 µg/mL); MIC [9]: 5.7 µM (≈ 11.4 µg/mL); MIC [10]: 5.7 µM (≈ 11.4 µg/mL); MIC (Candida albicans): 2.9 µM (≈ 5.79 µg/mL); MIC [11]: 0.7 µM (≈ 1.4 µg/mL); MIC [12]: 2.9 µM (≈ 5.79 µg/mL); MIC [13]: 0.7 µM (≈ 1.4 µg/mL)

For CC[C@H](C)[C@H](NC(=O)[C@@H](NC(=O)[C@@H](N)CCCNC(=N)N)[C@@H](C)CC)C(=O)N[C@@H](CC(=O)O)C(=O)N[C@@H](CC(C)C)C(=O)N[C@@H](CC(C)C)C(=O)N[C@@H](Cc1c[nH]c2ccccc12)C(=O)N[C@@H](CCCNC(=N)N)C(=O)N[C@H](C(=O)N[C@@H](CCCNC(=N)N)C(=O)N[C@@H](CCCNC(=N)N)C(=O)N1CCC[C@H]1C(=O)N[C@@H](CCC(N)=O)C(=O)N[C@@H](Cc1c[nH]c2ccccc12)C(=O)N1CCC[C@H]1C(=O)N[C@@H](CCCCN)C(=O)N[C@@H](Cc1ccccc1)C(=O)N[C@H](C(=O)N[C@H](C(=O)N[C@H](C(=O)N[C@@H](Cc1c[nH]c2ccccc12)C(=O)N[C@H](C(=O)N[C@H](C=O)CCCNC(=N)N)C(C)C)C(C)C)[C@@H](C)O)C(C)C)C(C)C [RIIDLLWRVRRPQWPKFVTVWVR], which MIC [2] is on record?
Its MIC is 14.1 µM (≈ 42.5 µg/mL).

What about the MIC [7] of the same compound?
Its MIC is 14.1 µM (≈ 42.5 µg/mL).

What about the MIC [8] of the same compound?
Its MIC is 14.1 µM (≈ 42.5 µg/mL).

For CC[C@H](C)[C@H](NC(=O)[C@H](CCCCN)NC(=O)[C@@H](NC(=O)[C@@H](NC(=O)[C@H](CCCN=C(N)N)NC(=O)[C@H](C)NC(=O)[C@H](CC(C)C)NC(=O)[C@@H](N)CCCN=C(N)N)[C@@H](C)CC)C(C)C)C(=O)N[C@@H](CCCN=C(N)N)C(=O)N[C@H](C(=O)N[C@@H](C)C(=O)N[C@@H](CCCN=C(N)N)C(N)=O)C(C)C [RLARIVKIRVAR], which MIC (Escherichia coli UB1005) is on record?
The MIC was 11 µM (≈ 16 µg/mL).

And the MIC [9]?
The MIC was 21.4 µM (≈ 31 µg/mL).

And the MIC [10]?
Its MIC is at least 43.4 µM.

And the MIC (Candida albicans)?
The MIC was 21.4 µM (≈ 31 µg/mL).

And the MIC [11]?
Its MIC is 21.4 µM (≈ 31 µg/mL).

What about the MIC [12] of the same compound?
Its MIC is 86.2 µM (≈ 125 µg/mL).

What about the MIC [13] of the same compound?
Its MIC is 86.2 µM (≈ 125 µg/mL).

With CC[C@H](C)[C@H](NC(=O)CN)C(=O)N[C@@H](CCCN=C(N)N)C(=O)N[C@@H](CCCN=C(N)N)C(=O)N[C@H](C(=O)N[C@@H](CC(C)C)C(=O)N[C@@H](CCCN=C(N)N)C(=O)N[C@@H](Cc1ccc(O)cc1)C(=O)NCC(=O)N[C@@H](CCCN=C(N)N)C(=O)N1CCC[C@H]1C(=O)N[C@@H](CO)C(N)=O)[C@@H](C)CC [GIRRILRYGRPS] as the compound, how does the MIC [14] read?
The MIC was 5 µM (≈ 7.21 µg/mL).

What about the MIC [15] of the same compound?
The MIC was 10 µM (≈ 14.4 µg/mL).

And the MIC [16]?
Its MIC is 10 µM (≈ 14.4 µg/mL).

And the MIC [17]?
The MIC was 10 µM (≈ 14.4 µg/mL).

And the MIC [18]?
Its MIC is 4 µM (≈ 5.77 µg/mL).

Which MIC [19] does the source give for CC[C@H](C)[C@H](N)C(=O)N[C@@H](C)C(=O)N[C@@H](C)C(=O)N[C@@H](C)C(=O)NCC(=O)N[C@@H](CC(C)C)C(=O)N1CCC[C@H]1C(=O)N[C@@H](CCC(N)=O)C(=O)N[C@@H](CCC(=O)O)C(=O)O [IAAAGLPQE] here?
The MIC was at least 2500 µM.

And the MIC [20]?
Its MIC is at least 2500 µM.

And the MIC [21]?
The MIC was at least 2500 µM.

What about the MIC [22] of the same compound?
The MIC was at least 1250 µM.

What about the MIC [23] of the same compound?
The MIC was at least 312 µM.

What about the MIC [24] of the same compound?
Its MIC is at least 1250 µM.

And the MIC [25]?
The MIC was at least 625 µM.

What about the MIC [26] of the same compound?
Its MIC is at least 1250 µM.

And the MIC [27]?
Its MIC is at least 1250 µM.

And the MIC [28]?
The MIC was at least 1250 µM.

And the MIC [29]?
The MIC was at least 1250 µM.

What about the MIC [30] of the same compound?
Its MIC is at least 1250 µM.

What about the MIC [31] of the same compound?
The MIC was at least 312 µM.

What does the source list for CC[C@H](C)[C@H](NC(=O)CNC(=O)[C@H](CC(C)C)NC(=O)[C@H](CCCN=C(N)N)NC(=O)[C@H](CCCCN)NC(=O)[C@H](Cc1ccccc1)NC(=O)[C@@H](NC(=O)[C@H](CCCCN)NC(=O)[C@H](CCCCN)NC(=O)[C@H](C)N)C(C)C)C(=O)NCC(=O)N[C@@H](C)C(=O)N[C@H](C(=O)N[C@@H](CC(C)C)C(=O)N[C@@H](Cc1c[nH]c2ccccc12)C(=O)N[C@H](C(=O)N[C@@H](CC(C)C)C(=O)N[C@H](C(=O)N[C@@H](Cc1c[nH]c2ccccc12)C(=O)NCC(=O)O)[C@@H](C)O)C(C)C)C(C)C [AKKVFKRLGIGAVLWVLTWG]?
MIC [1]: 3.12 µM (≈ 7 µg/mL); MIC [2]: ≥ 50 µM; MIC [3]: 0.78 µM (≈ 1.75 µg/mL); MIC [5]: 3.12 µM (≈ 7 µg/mL); MIC [6]: 6.25 µM (≈ 14 µg/mL); MIC [7]: ≥ 50 µM; MIC [8]: ≥ 50 µM

CC[C@H](C)[C@H](NC(=O)CN)C(=O)N[C@@H](Cc1cnc[nH]1)C(=O)N[C@@H](CC(=O)O)C(=O)N[C@H](C(=O)N[C@@H](CC(C)C)C(=O)N[C@@H](CCCCN)C(=O)N[C@@H](C)C(=O)NCC(=O)N[C@@H](CCCCN)C(=O)N1CCC[C@H]1C(=O)N[C@@H](CO)C(N)=O)[C@@H](C)CC [GIHDILKAGKPS] was tested. Which MIC [14] did it give?
Its MIC is 10 µM (≈ 12.3 µg/mL).

What about the MIC [15] of the same compound?
The MIC was at least 50 µM.

And the MIC [16]?
Its MIC is over 50 µM.

And the MIC [17]?
The MIC was 20 µM (≈ 24.7 µg/mL).

What about the MIC [18] of the same compound?
The MIC was 20 µM (≈ 24.7 µg/mL).

Which MIC [19] does the source give for CC(C)C[C@H](NC(=O)[C@H](CC(C)C)NC(=O)[C@H](CC(N)=O)NC(=O)[C@H](CC(=O)O)NC(=O)[C@H](CC(N)=O)NC(=O)[C@H](CC(C)C)NC(=O)[C@@H](N)C(C)C)C(=O)N[C@@H](CCCN=C(N)N)C(=O)O [VLNDNLLR] here?
Its MIC is at least 2500 µM.

What about the MIC [20] of the same compound?
Its MIC is at least 2500 µM.

And the MIC [21]?
Its MIC is at least 2500 µM.

What about the MIC [22] of the same compound?
Its MIC is at least 2500 µM.

And the MIC [23]?
The MIC was at least 2500 µM.

What about the MIC [24] of the same compound?
Its MIC is at least 2500 µM.

And the MIC [25]?
The MIC was at least 2500 µM.

And the MIC [26]?
Its MIC is at least 2500 µM.

And the MIC [27]?
Its MIC is at least 2500 µM.

And the MIC [28]?
The MIC was at least 2500 µM.

What about the MIC [29] of the same compound?
Its MIC is at least 2500 µM.

And the MIC [30]?
The MIC was at least 2500 µM.

What about the MIC [31] of the same compound?
The MIC was at least 2500 µM.

What does the source list for CC[C@H](C)[C@H](NC(=O)[C@H](C)N)C(=O)N[C@@H](Cc1cnc[nH]1)C(=O)N[C@@H](CC(=O)O)C(=O)N[C@H](C(=O)N[C@@H](CC(C)C)C(=O)N[C@@H](CCCCN)C(=O)N[C@@H](Cc1ccc(O)cc1)C(=O)NCC(=O)N[C@@H](CCCCN)C(=O)N1CCC[C@H]1C(=O)N[C@@H](CO)C(N)=O)[C@@H](C)CC [AIHDILKYGKPS]?
MIC [14]: 10 µM (≈ 13.4 µg/mL); MIC [15]: 10 µM (≈ 13.4 µg/mL); MIC [16]: 3 µM (≈ 4.02 µg/mL); MIC [17]: ≥ 50 µM; MIC [18]: ≥ 50 µM
